The target in one experiment is T1, Human CARM1 (PRMT4) (Homo sapiens, UniProt Q86X55).
T1 construct: Flag-CARM1-His; made in house; host or cells: HEK 293F cells (BacMam baculovirus, pFastBacMam)
T1 sequence (Q86X55 2-585 isoform Q86X55-1): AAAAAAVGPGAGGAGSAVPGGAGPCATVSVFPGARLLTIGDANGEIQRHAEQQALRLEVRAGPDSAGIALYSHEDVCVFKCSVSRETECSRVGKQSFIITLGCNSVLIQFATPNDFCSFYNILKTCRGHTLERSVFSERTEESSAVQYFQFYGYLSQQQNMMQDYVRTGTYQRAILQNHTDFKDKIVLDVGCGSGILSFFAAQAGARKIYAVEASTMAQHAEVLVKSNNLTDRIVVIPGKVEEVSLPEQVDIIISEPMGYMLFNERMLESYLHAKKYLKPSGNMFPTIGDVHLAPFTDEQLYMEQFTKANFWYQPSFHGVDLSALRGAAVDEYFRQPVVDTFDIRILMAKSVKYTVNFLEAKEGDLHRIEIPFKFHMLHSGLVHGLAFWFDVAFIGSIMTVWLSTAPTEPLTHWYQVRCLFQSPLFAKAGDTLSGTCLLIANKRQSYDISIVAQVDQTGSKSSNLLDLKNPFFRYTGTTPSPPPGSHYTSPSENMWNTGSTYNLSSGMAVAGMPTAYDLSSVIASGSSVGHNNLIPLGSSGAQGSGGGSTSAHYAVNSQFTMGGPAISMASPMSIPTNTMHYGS
In words: CARM1 biochemical assay (3H-SAM Flashplate, peptide substrate). The following applies: read-out: CARM1_ IC50. An outline of the steps: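 FLAG/His-tagged human CARM1 (isoform 1, Δ539-561, baculovirus-expressed), 0.25 nM, preincubated 30 min at room temperature with compound (2% DMSO) in 20 mM Bicine pH 7.6, then reacted with 30 nM 3H-SAM and 250 nM biotinylated H3 16-30 peptide (R26 monomethyl). Stopped with 300 uM cold SAM; labelled peptide captured on streptavidin Flashplate; % inhibition versus DMSO and 1 mM SAH controls fitted to a 4- or 3-parameter curve.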

Another experiment has as its target PRMT5 (Homo sapiens, UniProt O14744). The experiment in a line: PRMT5 IC50 (Table 2; no method described). Type of experiment: biochemical. The following applies: read-out: PRMT5_ IC50.

Chain of PRMT5 (O14744 whole entry, species assumed): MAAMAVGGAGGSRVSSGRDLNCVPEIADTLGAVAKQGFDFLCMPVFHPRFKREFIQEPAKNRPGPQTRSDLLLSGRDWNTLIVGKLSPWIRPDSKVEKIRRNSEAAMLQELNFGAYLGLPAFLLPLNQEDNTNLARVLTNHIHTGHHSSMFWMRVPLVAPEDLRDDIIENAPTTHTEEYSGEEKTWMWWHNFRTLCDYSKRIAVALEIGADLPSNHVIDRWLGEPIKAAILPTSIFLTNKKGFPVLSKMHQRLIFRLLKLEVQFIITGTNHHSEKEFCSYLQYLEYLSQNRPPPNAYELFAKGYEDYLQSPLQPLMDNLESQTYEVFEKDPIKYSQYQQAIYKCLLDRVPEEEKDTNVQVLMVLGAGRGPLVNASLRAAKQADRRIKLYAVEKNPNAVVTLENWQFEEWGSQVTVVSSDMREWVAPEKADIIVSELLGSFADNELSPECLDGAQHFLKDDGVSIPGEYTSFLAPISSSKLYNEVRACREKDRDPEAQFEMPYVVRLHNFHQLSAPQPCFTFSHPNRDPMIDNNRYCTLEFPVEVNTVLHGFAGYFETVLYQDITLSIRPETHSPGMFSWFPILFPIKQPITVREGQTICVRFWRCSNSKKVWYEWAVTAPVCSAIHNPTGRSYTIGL
Chain of PRMT5 (Q9BQA1 whole entry partner, species assumed): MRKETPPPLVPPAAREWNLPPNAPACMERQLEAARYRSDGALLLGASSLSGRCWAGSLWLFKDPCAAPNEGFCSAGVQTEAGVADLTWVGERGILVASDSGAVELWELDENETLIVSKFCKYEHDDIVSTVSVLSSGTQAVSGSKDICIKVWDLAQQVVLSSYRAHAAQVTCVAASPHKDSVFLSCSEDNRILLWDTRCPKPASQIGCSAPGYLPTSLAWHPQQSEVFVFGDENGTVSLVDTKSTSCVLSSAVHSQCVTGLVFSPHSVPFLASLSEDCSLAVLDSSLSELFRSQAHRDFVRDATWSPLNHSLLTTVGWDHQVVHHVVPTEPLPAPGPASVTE

For `COc1nc(C)cc(C)c1CNC(=O)c1cc(-c2cccc(CNCCN)c2)nc2c1cnn2C(C)C` [Compound 391], the results for the IC50 on Human CARM1 (PRMT4) and at PRMT5 were 0.141 µM and 30.5 µM, respectively.

As to `CNCCN(C)Cc1cccc(-c2nc(C(=O)NCc3cn4ccsc4n3)c3cnn(C4CC4)c3n2)c1` [Compound 180], the half-maximal inhibitory concentration (IC50) came to 0.0089 µM at Human CARM1 (PRMT4) and 200 µM at PRMT5.

Regarding `CNCCN(C)Cc1cccc(-c2nc(NCc3nccs3)c3cnn(C4CC4)c3n2)c1` [Compound 2], the half-inhibitory concentration (IC50) at Human CARM1 (PRMT4) is 0.0168 µM.

As to `CNCCN(C)Cc1cccc(-c2cc(C(=O)NCCC(=O)NCc3c(C)cc(C)[nH]c3=O)c3cnn(C(C)C)c3n2)c1` [Compound 384], the IC50 at Human CARM1 (PRMT4) was determined as 0.0188 µM.

With `CNCCN(C)Cc1ccc(-c2cncc(C(=O)NCc3c(C)cc(C)[nH]c3=O)c2)cc1` [Compound 373], the half-maximal inhibitory concentration (IC50) amounted to 5.77 µM on Human CARM1 (PRMT4) and 14.7 µM on PRMT5.

With `Cc1cc(C)c(CNC(=O)c2cc(-c3cccc(CN(C)CCN)c3)nc3c2cnn3C(C)C)c(=O)[nH]1` [Compound 360], the half-maximal inhibitory concentration (IC50) at Human CARM1 (PRMT4) turned out to be 0.0195 µM; at PRMT5, 15.4 µM.

Turning to `CNCCN(C)Cc1cccc(-c2cc(C(=O)NCCCCC(=O)NCc3c(C)cc(C)[nH]c3=O)c3cnn(C(C)C)c3n2)c1` [Compound 385], the IC50 on Human CARM1 (PRMT4) came out at 0.00711 µM.

Consider `CNCCN(C)Cc1ccc(-c2cc(C(=O)NCc3c(C)cc(C)[nH]c3=O)c(C)c3n[nH]cc23)cc1` [Compound 362], for which, at Human CARM1 (PRMT4), the half-maximal inhibitory concentration (IC50) worked out at 1.98 µM.

In the case of `CNCCN(C)Cc1cccc(-c2cc(C(=O)NCc3ccncc3)c3cnn(C(C)C)c3n2)c1` [Compound 182], the half-maximal inhibitory concentration (IC50) is 0.0103 µM on Human CARM1 (PRMT4) and 12.1 µM on PRMT5.

Consider `Cc1cc(C)c(CNC(=O)c2cc(-c3cccc(CNCCN)c3)cc3[nH]ncc23)c(=O)[nH]1` [Compound 366], for which the concentration for half-maximal inhibition (IC50) at Human CARM1 (PRMT4) is 1.39 µM; on PRMT5, 4.2 µM.

`CC(C)n1ncc2c(C(=O)N(C)CC3CCOCC3)cc(-c3cccc(CN(C)CCN)c3)nc21` [Compound 256]: the IC50 at Human CARM1 (PRMT4) was 0.0631 µM; at PRMT5 it was 50 µM.

For `CNCCN(C)Cc1cccc(-c2cc(C(=O)NCCCCCC(=O)NCc3c(C)cc(C)[nH]c3=O)c3cnn(C(C)C)c3n2)c1` [Compound 382], the half-maximal inhibitory concentration (IC50) on Human CARM1 (PRMT4) was 0.00901 µM.

For `Cc1cc(C)c(CNC(=O)c2cc(-c3cccc(CN(C)CCN(C)C)c3)nc3c2cnn3C(C)C)c(=O)[nH]1` [Compound 361], at Human CARM1 (PRMT4), the concentration for half-maximal inhibition (IC50) turned out to be 0.254 µM.

With `Cc1cc(C)c(CNC(=O)c2cc(CNCCN(C)C)cc3c2cnn3C2CCCC2)c(=O)[nH]1` [Compound 371], the IC50 on Human CARM1 (PRMT4) amounted to 28.3 µM.

`CNCCN(C)Cc1cccc(-c2cc(C(=O)NCCCC(=O)NCc3c(C)cc(C)[nH]c3=O)c3cnn(C(C)C)c3n2)c1` [Compound 383]: at Human CARM1 (PRMT4), the 50% inhibitory concentration (IC50) came to 0.00839 µM.

Turning to `CNCCN(C)Cc1cccc(-c2cc(C(=O)NCc3c(C)cc(C)[nH]c3=O)c(C)c3[nH]ncc23)c1` [Compound 372], the half-inhibitory concentration (IC50) at Human CARM1 (PRMT4) was 4.31 µM.

As for `CNCCN(C)Cc1ccc(-c2cc(C(=O)NCc3c(C)cc(C)[nH]c3=O)c(C)c3nn(C4CCCC4)cc23)cc1` [Compound 370], on Human CARM1 (PRMT4), the IC50 is 7.26 µM.

`CNCCN(C)Cc1cccc(-c2cc(C(=O)NCc3c(C)cc(C)[nH]c3=O)c3cnn(C(C)C)c3n2)c1` [Compound 368]: on Human CARM1 (PRMT4), the half-maximal inhibitory concentration (IC50) came to 0.00611 µM.

As for `COc1nc(C)cc(C)c1CNC(=O)c1cc(-c2cccc(CN(C)CCN(C)C)c2)nc2c1cnn2C(C)C` [Compound 386], the IC50 on Human CARM1 (PRMT4) was 0.209 µM.

Regarding `Cc1cc(C)c(CNC(=O)c2cc(-c3ccc(CNCCN(C)C)cc3)nc3c2cnn3C(C)C)c(=O)[nH]1` [Compound 359], at Human CARM1 (PRMT4), the 50% inhibitory concentration (IC50) was 50 µM.

As for `Cc1cc(C)c(CNC(=O)c2cncc(-c3ccc(CN(C)CCN)cc3)c2)c(=O)[nH]1` [Compound 374], the half-inhibitory concentration (IC50) at Human CARM1 (PRMT4) turned out to be 9.83 µM; at PRMT5 it was 44.3 µM.

With `Cc1cc(C)c(CNC(=O)c2cc(-c3cccc(CNCCN)c3)nc3c2cnn3C(C)C)c(=O)[nH]1` [Compound 365], the 50% inhibitory concentration (IC50) at Human CARM1 (PRMT4) came out at 0.0144 µM; on PRMT5, 49 µM.

As for `Cc1cc(C)c(CNC(=O)c2cncc(-c3ccc(CN(C)CCN(C)C)cc3)c2)c(=O)[nH]1` [Compound 378], the half-maximal inhibitory concentration (IC50) on Human CARM1 (PRMT4) amounted to 19.6 µM; on PRMT5, 66.6 µM.

On to `CN(CCN)Cc1cccc(-c2ccc(C(=O)NCC3CCOCC3)c(N(C)CC3CC3)c2)c1` [Compound 263], for which the figures for the IC50 at Human CARM1 (PRMT4) and at PRMT5 were 0.0722 µM and 7.73 µM, respectively.

As to `CNCCN(C)Cc1cccc(-c2cc(C(=O)N(C)Cc3ccccn3)c3cnn(C(C)C)c3n2)c1` [Compound 300], the IC50 on Human CARM1 (PRMT4) was 0.205 µM; on PRMT5, 34.3 µM.

For `CNCCN(C)Cc1cccc(-c2cc(C(=O)NCc3c(C)cc(C)[nH]c3=O)c3cnn(C(C)C)c3c2)c1` [Compound 367], on Human CARM1 (PRMT4), the concentration for half-maximal inhibition (IC50) stood at 0.184 µM.

Take `Cc1cc(C)c(CNC(=O)c2cncc(-c3ccc(CNCCN)cc3)c2)c(=O)[nH]1` [Compound 379]: the IC50 at Human CARM1 (PRMT4) was 6.57 µM; at PRMT5, 2.12 µM.

Source of the values: US20170280720A1, “ARGININE […] INHIBITORS AND USES THEREOF” (EPIZYME, INC., priority 2014, published 2017).
